{
  "source": "patent US9635857B2",
  "about": "“Tetrazolinone compound and use thereof” (SUMITOMO CHEMICAL COMPANY, LIMITED, priority 2013, dated 2017)",
  "tested_on": "soybean rust fungus (Phakopsora pachyrhizi)",
  "experiment": "Test Example 7: soybean rust control, foliar spray on soybean",
  "type": "in vivo",
  "conditions": "200 ppm sprayed on soybean (KUROSENGOKU); inoculated after 2 days; assessed after 3 + 14 days",
  "data": [
    {"smiles": "CON=C(C)c1cccc(OCc2c(C)cccc2-n2nnn(C)c2=O)n1", "note": "[compound 44]", "values": [
      {"measurement": "area of lesion on the treated plant relative to that on an untreated plant", "result": "≤ 30", "unit": "%"}
    ]}
  ]
}
